Results reported in PubChem BioAssay (NCI).
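Cultured in 96-well plates, cells were exposed to test compound for 48 hours across five concentrations. Here, GI50 denotes the concentration required for 50% inhibition of growth. TGI: concentration producing complete growth inhibition.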

Test system: MDA-MB-468 breast
Assay: NCI-60 cell line screen, 48 h

| Structure (SMILES) | GI50 | TGI |
| --- | --- | --- |
| COc1ccc(C2=NN(C(=O)c3cc(OC)c(OC)c(OC)c3)C(c3ccc(N(C)C)cc3)C2)cc1 (configuration not stated) | 0.236 µM | 0.644 µM |
| Cc1ccc(Cl)c(Nc2ccccc2C(=O)O)c1Cl | 25.9 µM | 67.2 µM |
| CN(C)c1ccc(/C=C/C2=[N+](C)c3ccccc3C2(C)C)cc1 | 0.555 µM | 6.19 µM |
| CC(=O)c1cc(C(=O)c2ccc3c(c2)Sc2ccccc2N3)c2cc(C)ccn12 | 0.0663 µM | 7.21 µM |
| COc1ccc(/C=C2\C=C(c3ccccc3)N(CCc3ccccc3)C2=O)cc1OC | 7.57 µM | 42.4 µM |
| COc1cc(C(=O)Nc2cc(OC)c3ccn(C)c3c2)cc2c1C[C@]1(C)CC[C@@H](O)C(C)(C)[C@H]1O2 | 0.488 µM | 3.01 µM |
| COc1ccc(N2CCN(C3=C(Cl)C(=O)c4ncccc4C3=O)CC2)cc1 | 1.84 µM | 3.5 µM |
| CN1CCN(Cc2ccc(NC(=O)c3cccc(C#Cc4cnc(N)c5ncccc45)c3F)cc2C(F)(F)F)CC1 | 6.2 µM | 16 µM |
| O=c1oc2ccc(Br)cc2c(=O)n1-c1ccc(I)cc1F | 0.547 µM | 2.04 µM |
| CCCCCCCCCCCCCCCCC(=O)O.CCCCCCCCCCCCCCCCCC(=O)O.CCCCCCCCCCCCCCCCCC(=O)O.CCCCCCCCCCCCCCCCCC(=O)O.CCCCCCCCCCCCCCCCCC(=O)O.CO[CH-]OC12COC1CC(O)C1(C)C(O)C(OC(C)O)C3=C(C)C(OC(=O)C(O)C([NH-])c4ccccc4)CC(O)(C(OC(=O)c4ccccc4)C21)C3(C)C.[Cu+].[Zn].[Zn].[Zn].[Zn].[Zn] (configuration not stated) | 0.00338 µM | 0.0166 µM |
| CCN(CC)C1CCC(Nc2c(C(C)=O)cnc3ccc(-c4ccc(O)c(Cl)c4)cc23)CC1 (configuration not stated) | 0.871 µM | 15.8 µM |
| Cn1c(/C=C/[N+](=O)[O-])cc2ccccc21 | 1.77 µM | 3.37 µM |
| Oc1cc2ccccc2c(-c2c(O)c(O)cc3ccccc23)c1O | 1.09 µM | 17.2 µM |
| Cn1cc(C2=C(c3cn(C)c4ccccc34)C(=O)NC2=O)c2ccccc21 | 0.65 µM | > 25 µM |
| NC(N)=N/N=C/c1ccc(-c2ccc(-c3cc(Cl)cc(Cl)c3)s2)cc1 | 1.83 µM | 3.81 µM |
| CC(=O)Oc1ccc(/C(=C(\C)c2ccc(Cl)cc2)c2ccc(OCCN3CCCCC3)cc2)cc1 | 1.45 µM | 3.21 µM |
| COc1cc(-c2cc(-c3cc(OC)c(OC)c(OC)c3)nc3nc(N)[nH]c(=O)c23)ccc1Oc1ccnc2cc(Cl)ccc12 | 3.24 µM | > 100 µM |
| COc1cc(C(=O)N/N=C/c2ccc(N(C)C)cc2)cc(OC)c1OC | 0.225 µM | 1.19 µM |
| O=C1c2cccc(NCCN=Cc3ccccc3O)c2C(=O)c2c(NCCN=Cc3ccccc3O)cccc21 | – | 0.191 µM |
| CC1=C2C(=C[C@@](C)(COS(C)(=O)=O)[C@@H]2O)C(=O)[C@](C)(O)C12CC2 | 0.201 µM | 0.519 µM |
| COC1=CC(c2ccc[nH]2)=N/C1=C\c1[nH]c(C)c(C(=O)CCCCC(=O)Oc2ccc3c(c2)CCC2C3CC[C@]3(C)[C@@H](O)CC[C@@H]23)c1C (some centres not stated) | 4.92 µM | > 100 µM |
| CCCCCCCCn1ccc2cc(NC(=O)Cn3cc(CN4CCCCC4)nn3)ccc21 | 1.67 µM | 3.73 µM |
| COc1cc(/C=C/C(=O)N2CCN(C(=O)c3cc(OC)c(OC)c(OC)c3)CC2)ccc1OCCCOc1cc2c(cc1OC)C(=O)N1CCC[C@H]1C=N2 | 0.102 µM | 0.336 µM |
| CC(=O)OC1CC2C3CCC4C[C@@H](NC(=O)C=C(C)C)CC[C@]4(C)C3CC[C@]2(C)[C@H]1C(C)N(C)C (some centres not stated) | 0.8 µM | 2.37 µM |
| CCN(CC)Cc1c(/C=C\c2cc(OC)c(OC)c(OC)c2)ccc(OC)c1O | 7.97 µM | 34 µM |
| O=C(/C=C/c1csc(Br)n1)NO | 2.9 µM | 21.5 µM |
| CC1(C)[C@@H](OC(=O)CCC(=O)O)CC[C@]2(C)[C@H]3C(=O)C=C4[C@@H]5C[C@@](C)(C(=O)O)CC[C@]5(C)CC[C@@]4(C)[C@]3(C)CC[C@@H]12 | 78.6 µM | 189 µM |
| COc1ccc(Nc2cc(C)nc(NCCCNc3ccnc4cc(Cl)ccc34)n2)cc1 | 1.39 µM | 2.79 µM |
| Clc1ccc(-c2cc(-c3ccccc3)nc(NCCNc3ccnc4cc(Cl)ccc34)n2)cc1 | 1.48 µM | 3.15 µM |
